Assay results published in US20170307610A1, “COMPOUNDS THAT BIND DYSTROGLYCAN AND USES THEREOF” (OREGON HEALTH & SCIENCE UNIVERSITY, priority 2014, published 2017).

What was measured:
MEpG MECs (DG−/− or DG+) = test: Laminin internalization in dystroglycan-deleted or re-expressing cells, flow cytometry; assay type: cell-based, mouse; conditions: n=6
Source text: Genetic manipulation of laminin receptor expression was employed in order to identify the specific receptor(s) mediating laminin internalization. […] To test the role of DG in laminin internalization, an MEC cell line containing an engineered dystroglycan deletion (MEpG) was used (Weir M L et al, 2006 supra). The MEpG cell line was infected with retroviral empty vector (creating control DG−/− cells) or retrovirus expressing DG (creating DG+ cells). Immunoblotting confirmed the expected presence or absence of DG expression in these cell types (FIG. 11A). […] The compiled mean fluorescence intensity (MFI) data of cells expressing DG was nearly four-fold higher than cells lacking DG expression (DG+=18.04±4.6; DG−/−=4.84±1.43, n=6, FIG. 7C). Therefore, the majority of laminin internalization observed in functionally normal mammary epithelial cells appeared to depend on dystroglycan function.
Cell culture—Primary mammary epithelial cells from control or ΔDGK14-Cre mid-pregnant mice were obtained as previously described (Weir et al, 2006 supra). DG-knockout (MEpG and MEpL cells), and WT E3D1 mammary epithelial cells were established as described previously (Weir et al, 2006 supra) from floxed-DG mice. β1 int-knockout (E3D1 cre19) MECs were established from floxed -β1 int primary MECS, as above. MECs were grown in DME/F12, 2% FBS, 10 μg/ml insulin and 5 ng/ml EGF (BD Biosciences, San Jose, Calif., USA). Human DG, β1 int, or wedge β1 int genes (Luo B H et al, Proc Natl Acad Sci USA 102, 3679-3684 (2005); incorporated by reference herein) were cloned into the retroviral expression vector, pBMN-IRES-PURO as described previously (Weir et al, 2006 supra) and verified by sequencing. […] These cultures produced >95% astrocytes as determined by staining with GFAP astrocyte marker antibody.
Flow Cytometry—Cells were plated in 12 well plates at 200,000 cells/well. […] Using a BD FACScan flow cytometer (BD Biosciences, San Jose, Calif., USA), 10,000 cells/well were counted, background fluorescence from the cell counts with no added laminin subtracted and the mean fluorescence intensity values reported. […]

E3D1 MECs = test: Pulsed time course of Rhod-Ln internalization, flow cytometry; assay type: cell-based, mouse
Experimental: To explore the dynamics of laminin internalization, steady-state time course experiments (measuring internalization in the continuous presence of labeled laminin) and pulsed time course experiments were performed. In pulsed time course experiments, the cells were exposed to exogenous Rhod-Ln at 4° C. to prevent internalization, excess unbound Rhod-Ln was washed away, and then cells were returned to 37° C. to allow synchronized internalization and trafficking to proceed. […] Following pulsed and synchronized laminin exposure, Rhod-Ln was again observed to internalize within 1 hour, but reached a maximum at 8 hours, after which the levels of internal laminin declined (FIG. 4A). After 24 hours, internal Rhod-Ln levels declined to ˜37% of the maxima, indicating degradation (MFI: 315±3.5 to 119±11.5). To determine if laminin was degraded using classical degradation pathways, pulsed time course experiments in the presence of leupeptin (lysosome inhibitor) or […] (proteasome inhibitor) were performed.
Laminin labeling—Laminin-111 (1 mg) (Sigma-Aldrich Corp., St. Louis, Mo., USA) was dialyzed twice overnight against 500 ml of PBS with 10 μM CaCl2. The dialyzed laminin was then reacted with 10 μg NHS-rhodamine, or a 50 fold molar excess of NHS409 CypHer5 (GE) for 2 hr on ice, followed by dialysis twice overnight against 500 ml of PBS with 10 μM CaCl2.
(§1) Flow Cytometry—Cells were plated in 12 well plates at 200,000 cells/well. The following day, media was changed to serum-free media with or without 10 μg/ml rhodamine laminin or 40 μg/ml FITC-dextran (500S-Sigma-Aldrich Corp., St. Louis, Mo., USA). Unless otherwise indicated, cells were incubated 18-24 hrs, washed once with PBS, and cells trypsinized. Cells were washed in 5 ml cold PBS/1 mM EDTA, pelleted, and resuspended in 1 ml PBS/1 mM EDTA. Using a BD FACScan flow cytometer (BD Biosciences, San Jose, Calif., USA), 10,000 cells/well were counted, background fluorescence from the cell counts with no added laminin subtracted and the mean fluorescence intensity values reported. Graphed data are compiled from duplicate wells from each experiment with a minimum of three separate experiments, unless indicated otherwise.

[1] = system: MDA-MB-231 human breast cancer cells; test: Laminin internalization in vector or LARGE expressing cells, flow cytometry; assay type: cell-based
Source text: Loss of DG's laminin binding function is a cause of some congenital muscular dystrophies (CMDs) and is a frequent defect in cancers including those of the breast, prostate, colon, and brain (Akhavan A et al, 2012 supra; Beltran-Valero de Bernabe et al, 2009 infra). This loss of function arises from altered glycosylation of DG and can be restored in many carcinoma and glioblastoma cells by expression of the enzyme LARGE, a glycosyltransferase that confers laminin-binding properties to DG (Akhavan et al., 2012; Beltran-Valero de Bernabe D et al, J Biol Chem 284, 11279-11284 (2009); incorporated by reference herein. Based on these facts in light of the disclosure herein, it was hypothesized that laminin internalization would be severely disrupted in cancer cells lacking DG activity and enhanced by the restoration of such activity. This hypothesis was tested in MDA-MB-231 human breast cancer cells and LN18 human glioma cells, both of which lack DG glycosylation and function. […] Expression of LARGE restored normal glycosylation of DG as determined by western blot analysis with IIH6 antibody (FIG. 10A, LARGE) and functional interaction of DG in the laminin assembly assay (FIG. 10B, LARGE). These cells were subsequently assayed for laminin internalization by flow cytometry.
as §1

Substance: Rhod-Ln: laminin-111 labeled with NHS-rhodamine; dystroglycan binding reagent
- MFI of internalized laminin, DG+ cells (MEpG MECs (DG−/− or DG+); cells expressing DG, 18 hours): 18.04±4.6
- MFI of internalized laminin, DG−/− cells (MEpG MECs (DG−/− or DG+); cells lacking DG, 18 hours): 4.84±1.43
- more laminin internalized by DG+ MECs than DG−/− MECs (MEpG MECs (DG−/− or DG+); compiled MFI): 380%
- time at which Rhod-Ln was observed to internalize (E3D1 MECs; pulsed and synchronized laminin exposure, 4° C. then 37° C.): ≤ 1 h
- time of maximum internal laminin (E3D1 MECs; pulsed laminin exposure): 8 h
- MFI of internal Rhod-Ln after 24 hours (E3D1 MECs; pulsed, 24 hours): 119±11.5
- internal Rhod-Ln level relative to the maxima (E3D1 MECs; pulsed, after 24 hours): ~37%
- MFI of internal Rhod-Ln at the maximum (E3D1 MECs; pulsed, maximum (8 hours)): 315±3.5
- increase in MFI of internalized laminin, LARGE vs vector ([1]; MDA-MB-231): 68 fold
- MFI of internalized laminin, LARGE expressing cells ([1]; MDA-MB-231 LARGE, Rhod-Ln 18 hours, n=3): 6.82 +/−0.241
- MFI of internalized laminin, vector cells ([1]; MDA-MB-231 empty vector, Rhod-Ln 18 hours, n=3): 0.1+/−0.014
